Assay results as given in patent US20260256772A1, “BENZOTHIAZOLE COMPOUND AND USE THEREOF” (NANJING REJU THERAPEUTICS, INC., priority 2022, published 2026).

Assays:
[1] = tested on: idiopathic pulmonary fibrosis; experiment: Idiopathic pulmonary fibrosis animal model (bleomycin); assay type: in vivo, SD rats; conditions: intraperitoneal (IP) 5 mg/kg, 3 consecutive weeks, FIG. 6; for pathology scores: H&E and Masson staining; for WBC: alveolar lavage fluid; for HYP: lung tissue
Method: In this test example, the efficacy of the compounds of the present disclosure was tested on idiopathic pulmonary fibrosis in an idiopathic pulmonary fibrosis animal model. Briefly, anesthetized 6-week-old SD rats were fixed on a foam board with medical tape. Firstly, the skin on the surface of the trachea was cut with surgical scissors to fully expose the trachea, and a 100-microlitre micro-syringe containing a certain volume of bleomycin (BLM 5 mg/kg) solution drawn based on the body weight of the rat was inserted into the trachea through the oral cavity to administer by slow bolus injection. After administration of the BLM solution, the foam plate was immediately rotated and shaken to distribute the BLM solution as evenly as possible in the lung tissue. Then the skin on the surface of the trachea was sutured with surgical sutures and about 0.5 to 1.0 mL of penicillin solution was dripped onto the epidermis to prevent infection of the surgical wound. After the 7th day of modelling, the compound solution of the present disclosure was administered via intraperitoneal (IP) injection (5 mg/kg) according to the weight of the rat for 3 consecutive weeks. Rats were euthanized by carbon dioxide on Day 28, the lung tissues were removed, the left alveolar lavage fluid was collected for white blood cell (WBC) counting, the right lung tissue portion was used for hydroxyproline (HYP) assay, and the remaining lung tissues were stained for pathology by H&E staining and Masson staining.

[2] = tested on: wet-age-related macular degeneration; experiment: CNV animal model of wet-age-related macular degeneration; assay type: in vivo, mice; conditions: intravitreal (IVT), FIG. 5
Method: In this test example, the efficacy of the compounds of the present disclosure was tested on wet-age-related macular degeneration in a CNV animal model.
Male mice were administered 0.5% probacaine hydrochloride (Alcon) for local anesthesia, and 1% tropicamide to dilate the pupils of the mice. Laser cauterization was performed using a laser photocoagulator (Novus Varia, LUMENIS) with a slit lamp delivery system. And artificially torn adherent glass coverslips were used as contact lenses. Bleeding spots caused by lasers were not included in the statistics. In each experimental group, six mice were analyzed with four impacts per eye to overcome inherent variability.

[3] = tested on: osteoarthritis; experiment: Osteoarthritis animal model; assay type: in vivo, mice; conditions: intra-articular injection, FIG. 7
Method: In this test example, the efficacy of the compounds of the present disclosure was tested on osteoarthritis in an osteoarthritis animal model.
The osteoarthritis animal model was constructed by the following steps. The mice were anesthetized with isoflurane, and fixed. The hair on the right hind limb of the mice was shaved and the skin was disinfected with alcohol, and the skin of the joints was cut. Under an optical microscope, the inside of the right knee joint was incised longitudinally with a blade, without cutting the patellar ligament. The patellar ligament was pulled to one side with constant hemostasis by compression with sterile cotton swabs such that the joint cavity was fully exposed. Saline was added dropwise in time to avoid the drying up of the joint cavity. The excess muscle tissue was gently separated with a blunt forceps to expose the meniscus ligament. The anterior cruciate ligament was found in the depth of the joint cavity and cut with a micro scissor. Then the wound was disinfected with penicillin solution, the muscle was sutured with sterile needle and thread, and the skin tissue was finally sutured. The efficacy of the drug was determined by intra-articular injection administration. At the endpoint of the test, continued pain threshold of the plantar was detected, and the bone joints were stained with safranin fast green.

[4] = tested on: diabetic retinopathy; experiment: Mouse model of diabetic retinopathy (STZ), retinal Evans blue penetration assay; assay type: in vivo; conditions: intravitreal (IVT), 1 μL of 200 μM at 8 and 9 weeks after STZ, FIG. 4
Method: The efficacy of the compounds of the present disclosure was studied in a mouse model of diabetic retinopathy by multiple administrations of streptozotocin (STZ). C57BL/6J mice at 6 to 7 weeks were weighed and their baseline blood glucose was measured (Sino). STZ (Sigma-Alderich) was injected intraperitoneally into the mice at 55 mg/Kg for five consecutive days. Age-matched controls were injected with buffer only. Blood glucose was measured again one week after the last STZ injection. 1 μL of the test compound (200 μM, a suspension formulated in 0.015% polysorbate 80, 0.2% sodium phosphate, 0.75% sodium chloride, pH 7.2) was injected intravitreally into the STZ-treated diabetic C57BL/6J mice at 8 and 9 weeks after STZ administration. 10 weeks after STZ treatment, the retinal Evans blue penetration assay was performed.

[5] = tested on: Alzheimer's disease; experiment: Alzheimer's disease APP×PS1 transgenic mouse model; assay type: in vivo; conditions: intraperitoneal injection, 11 consecutive weeks, twice a week, FIG. 8
Method: In this test example, the efficacy of the compounds of the present disclosure was tested on Alzheimer's disease in an animal model of Alzheimer's disease. Briefly, a transgenic mouse model of APP×PS1 (purchased from Cyagen Biosciences) was selected, and the compound of the present disclosure was administered by intraperitoneal injection for 11 consecutive weeks, twice a week. Alterations in amyloid in the cerebral cortex of the mice were observed.

[6] = tested on: senescent cells; experiment: Senescent cell killing, CellTiter-Glo cell viability; assay type: cell-based, human, mouse; conditions: activity of killing senescent cells; cell type not specified
Description: In this test example, human non-small cell lung cancer cell line (A549 cells), human embryonic lung fibroblast cell line (IMR90 cells), human retinal pigment epithelial cells (RPE cells), mouse chondrocytes, and mouse skin fibroblasts were selected. The above cells were induced by etoposide ([…]) to obtain their senescent cells. The effect of the target compounds on the viability of normal and senescent cells above was examined, thus assessing the specific killing effect of the compounds on senescent cells above.
Briefly, senescent and normal cells above were selected and plated separately (96-well plates). […] 2A to 2E.

[7] = tested on: aging skin; experiment: Aging skin, naturally aging mouse model; assay type: in vivo, C57bl/6J mice; conditions: skin application twice a week for 6 consecutive weeks, FIG. 10
Method: In this test example, aged female C57bl/6J mice (22 months old) were used. The drug was administered by skin application twice a week for 6 consecutive weeks.

[8] = tested on: platelets; experiment: Platelet toxicity test in mice (platelet count); assay type: in vivo
Method: In this test example, C57 mice were chosen to detect the effect of the target compounds on platelets.
7 to 8 weeks old […] mice were randomly divided into vehicle group and compound group. The test compound (0.5 mg/kg) or blank vehicle was administrated via single intraperitoneal injection. Blood was collected from the retroorbital venous plexus of the mice at 6 hours, and placed in a blood routine tube containing anticoagulant EDTA-K2. After shaking gently, the blood physiological indicators were measured using a hematology analyzer, with the platelet count as the target parameter for this platelet toxicity test.

In the case of `Cc1c(-c2ccc(N3CCc4cccc(C(=O)Nc5nc6ccccc6s5)c4C3)nc2C(=O)N2CCN(CCO)CC2)cnn1CC12CC3CC(CC(C3)C1)C2` [RX002], the pathology scores [1] was “statistically significant improvements”, the WBC [1] was “statistically significant improvements” and the HYP [1] was “statistically significant improvements”. The fluorescence intensity indicators [2] was “statistically significant improvements”, the “pathology scores of safranin fast green staining” value [3] was “statistically significant improvements” and the “plantar mechanical pain threshold” value [3] was “statistically significant improvements”. For the same compound, the “vascular permeability, choroidal vascular leakage” value [4] was “improved”, the “vascular permeability, retinal vascular leakage” value [4] was “improved” and the “Aβ42 pathogenic protein indicators” value [5] was “statistically significant improvements”. The IC50 [6] was under 0.2 µM and the “epidermal thickness scores of the skins” value [7] was “statistically significant improvements”.
For `Cc1c(-c2ccc(N3CCc4cccc(C(=O)Nc5nc6ccccc6s5)c4C3)nc2C(=O)NC2CCN(Cc3ccccc3)CC2)cnn1CC12CC3CC(CC(C3)C1)C2` [RX003], the pathology scores [1] was “statistically significant improvements”, the WBC [1] was “statistically significant improvements” and the HYP [1] was “statistically significant improvements”. The fluorescence intensity indicators [2] was “statistically significant improvements”, the “pathology scores of safranin fast green staining” value [3] was “statistically significant improvements” and the “plantar mechanical pain threshold” value [3] was “statistically significant improvements”. For the same compound, the “vascular permeability, choroidal vascular leakage” value [4] was “improved”, the “vascular permeability, retinal vascular leakage” value [4] was “improved” and the “Aβ42 pathogenic protein indicators” value [5] was “statistically significant improvements”. The “epidermal thickness scores of the skins” value [7] was “statistically significant improvements”.
In the case of `Cc1c(-c2ccc(N3CCc4cccc(C(=O)Nc5nc6ccccc6s5)c4C3)nc2C(=O)N2CCNC(=O)C2)cnn1CC12CC3CC(CC(C3)C1)C2` [RX004], the IC50 [6] was 0.2 to 1 µM.
Work on `Cc1c(-c2ccc(N3CCc4cccc(C(=O)Nc5nc6ccccc6s5)c4C3)nc2C(=O)NCc2ccco2)cnn1CC12CC3CC(CC(C3)C1)C2` [RX005] yielded an IC50 [6] of over 10 µM.
Compound `Cc1c(-c2ccc(N3CCc4cccc(C(=O)Nc5nc6ccccc6s5)c4C3)nc2C(=O)N2CCN(C)CC2)cnn1CC12CC3CC(CC(C3)C1)C2` [RX007] has an IC50 [6] of 0.2 to 1 µM.
For `Cc1c(-c2ccc(N3CCc4cccc(C(=O)Nc5nc6ccccc6s5)c4C3)nc2C(=O)N2CCNCC2)cnn1CC12CC3CC(CC(C3)C1)C2` [RX008], the IC50 [6] was 0.2 to 1 µM.
Work on `Cc1c(-c2ccc(N3CCc4cccc(C(=O)Nc5nc6ccccc6s5)c4C3)nc2C(=O)N2CCOCC2)cnn1CC12CC3CC(CC(C3)C1)C2` [RX009] yielded an IC50 [6] of under 0.2 µM.
Compound `Cc1c(-c2ccc(N3CCc4cccc(C(=O)Nc5nc6ccccc6s5)c4C3)nc2C(=O)NCC2CCOCC2)cnn1CC12CC3CC(CC(C3)C1)C2` [RX010] has an IC50 [6] of 0.2 to 1 µM.
With `Cc1c(-c2ccc(N3CCc4cccc(C(=O)Nc5nc6ccccc6s5)c4C3)nc2C(=O)N2CCC(CO)CC2)cnn1CC12CC3CC(CC(C3)C1)C2` [RX011] the “platelet toxicity (platelet count)” value ([8]; mouse, in vivo, ip, 0.5 mg/kg) was “significantly improved” and the IC50 [6] was under 0.2 µM.
`Cc1c(-c2ccc(N3CCc4cccc(C(=O)Nc5nc6ccccc6s5)c4C3)nc2C(=O)NCCN2CCOCC2)cnn1CC12CC3CC(CC(C3)C1)C2` [RX012] gave an IC50 [6] of 0.2 to 1 µM.
In the case of `Cc1c(-c2ccc(N3CCc4cccc(C(=O)Nc5nc6ccccc6s5)c4C3)nc2C(=O)N2CCN(CCO)CC2)cnn1CC12CC3CC(CC(C3)C1)C2` [RX013], the “platelet toxicity (platelet count)” value ([8]; mouse, in vivo, ip, 0.5 mg/kg) was “significantly improved” and the IC50 [6] was under 0.2 µM.
`Cc1c(-c2ccc(N3CCc4cccc(C(=O)Nc5nc6ccccc6s5)c4C3)nc2C(=O)NCCO)cnn1CC12CC3CC(CC(C3)C1)C2` [RX014] gave an IC50 [6] of 1 to 10 µM.
Compound `Cc1c(-c2ccc(N3CCc4cccc(C(=O)Nc5nc6ccccc6s5)c4C3)nc2C(=O)NCC(=O)O)cnn1CC12CC3CC(CC(C3)C1)C2` [RX015] has an IC50 [6] of 1 to 10 µM.
For `Cc1c(-c2ccc(N3CCc4cccc(C(=O)Nc5nc6ccccc6s5)c4C3)nc2C(=O)N2CCN(CCN)CC2)cnn1CC12CC3CC(CC(C3)C1)C2` [RX016], the “platelet toxicity (platelet count)” value ([8]; mouse, in vivo, ip, 0.5 mg/kg) was “significantly improved” and the IC50 [6] was 0.2 to 1 µM.
For `Cc1c(-c2ccc(N3CCc4cccc(C(=O)Nc5nc6ccccc6s5)c4C3)nc2C(=O)N2CCC(O)CC2)cnn1CC12CC3CC(CC(C3)C1)C2` [RX019], the “platelet toxicity (platelet count)” value ([8]; mouse, in vivo, ip, 0.5 mg/kg) was “significantly improved” and the IC50 [6] was under 0.2 µM.
For `Cc1c(-c2ccc(N3CCc4cccc(C(=O)Nc5nc6ccccc6s5)c4C3)nc2C(=O)NCC(=O)OCc2ccccc2)cnn1CC12CC3CC(CC(C3)C1)C2` [RX020], the IC50 [6] was over 10 µM.
Work on `CCOC(=O)C(C)NC(=O)c1nc(N2CCc3cccc(C(=O)Nc4nc5ccccc5s4)c3C2)ccc1-c1cnn(CC23CC4CC(CC(C4)C2)C3)c1C` (centres unmarked) [RX021] yielded an IC50 [6] of 1 to 10 µM.
`CCOC(=O)CCC(NC(=O)c1nc(N2CCc3cccc(C(=O)Nc4nc5ccccc5s4)c3C2)ccc1-c1cnn(CC23CC4CC(CC(C4)C2)C3)c1C)C(=O)OCC` (centres unmarked) [RX022] was tested, and the IC50 [6] was over 10 µM.
Work on `Cc1c(-c2ccc(N3CCc4cccc(C(=O)Nc5nc6ccccc6s5)c4C3)nc2C(=O)N2CCC(OP(=O)(O)O)CC2)cnn1CC12CC3CC(CC(C3)C1)C2` [RX302] yielded an IC50 [6] of under 0.2 µM.
`Cc1c(-c2ccc(N3CCc4cccc(C(=O)Nc5nc6ccccc6s5)c4C3)nc2C(=O)N2CCN(CCOP(=O)(O)O)CC2)cnn1CC12CC3CC(CC(C3)C1)C2` [RX304] was tested, and the “platelet toxicity (platelet count)” value ([8]; mice, 0.5 mg/kg single intraperitoneal injection, blood at 6 hours, FIG. 1) was “significantly improved” and the IC50 [6] was under 0.2 µM.
